This is an account of results in PubChem BioAssay (NCI).

“And” between values parts separate entries of the source, which are not always exact repeats. Equal entries are not always repeated.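 Dose response: 5 concentrations. Exposure: 48 h. Format: 96-well plates. Endpoint: linear interpolation; highest concentration if not reached. GI50 = concentration required for 50% inhibition of growth. TGI is the concentration that stops growth completely.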

Among the test systems are SNB-19 CNS; HCT-116 colon; OVCAR-3 ovarian; HL-60(TB) leukemia; T-47D breast; HCC-2998 colon; SK-MEL-28 melanoma; CCRF-CEM leukemia; NCI-H522 lung; M14 melanoma.
Assay in all cases: NCI anticancer screen, dose series, 48 h

For the compound `CCCN(CCC)c1ccc(/C=N/NC(=O)c2cccnc2)c(OC)c1`, the GI50 in the assay on SNB-19 CNS was 41.6 µM; in the assay with HCT-116 colon it was 22.7 µM; in the assay on OVCAR-3 ovarian it was 16.9 µM; in the assay on HL-60(TB) leukemia it was 22.7 µM; in the assay on T-47D breast, 17.3 µM; in the assay on HCC-2998 colon, 26.6 µM. For the same compound, the figures for the GI50 in the assay on SK-MEL-28 melanoma, in the assay on CCRF-CEM leukemia and with NCI-H522 lung were 26.6 µM, 25.5 µM and 20.3 µM, respectively. Besides, the TGI was greater than 100 µM in the assay on SNB-19 CNS; greater than 100 µM in the assay on HCT-116 colon; 36.7 µM in the assay on OVCAR-3 ovarian; 59.2 µM in the assay with HL-60(TB) leukemia; 50.8 µM in the assay on T-47D breast; 98.4 µM in the assay on HCC-2998 colon. Besides, the TGI in the assay on SK-MEL-28 melanoma is 98 µM; in the assay on CCRF-CEM leukemia, greater than 100 µM; with NCI-H522 lung, 56.9 µM.
With `COc1cc2nccc(Oc3ccc(NC(=O)Nc4cc(C)on4)c(Cl)c3)c2cc1OC`, the GI50 is 2.55 µM and 3.05 µM in the assay with M14 melanoma; 5.12 µM and > 10 µM in the assay on SNB-19 CNS; 2.29 µM and 2.91 µM with HCT-116 colon; 4 µM and 7.96 µM with OVCAR-3 ovarian; 3.35 µM and 3.2 µM in the assay with HL-60(TB) leukemia; 2.98 µM and 3.35 µM in the assay on T-47D breast. For the same compound, the GI50 in the assay with HCC-2998 colon is 9 µM and > 10 µM; in the assay on SK-MEL-28 melanoma it was 3.76 µM and 4.31 µM; in the assay with CCRF-CEM leukemia it was 3.1 µM; in the assay with NCI-H522 lung it was 3.47 µM and 3.14 µM. Besides, the TGI is 7.83 µM and > 10 µM in the assay with M14 melanoma; greater than 100 µM in the assay on SNB-19 CNS; 5.48 µM and > 10 µM with HCT-116 colon; 14.4 µM and > 10 µM in the assay with OVCAR-3 ovarian; 11.8 µM and > 10 µM in the assay with HL-60(TB) leukemia; 23.2 µM and > 10 µM in the assay with T-47D breast. Also, the TGI in the assay with HCC-2998 colon was greater than 100 µM; with SK-MEL-28 melanoma, 19.3 µM and > 10 µM; with CCRF-CEM leukemia, greater than 100 µM; in the assay with NCI-H522 lung, 32.9 µM and > 10 µM.
For the compound `OCCNc1nc(Nc2ccc(Cl)c(Cl)c2)nc2ccccc12`, the GI50 in the assay with SNB-19 CNS is 5.02 µM; in the assay on HCT-116 colon, 3.52 µM; in the assay with OVCAR-3 ovarian, 7.51 µM; in the assay on HL-60(TB) leukemia, 8.69 µM; in the assay on T-47D breast it was 9.65 µM; with HCC-2998 colon it was 2.52 µM. For the same compound, the GI50 is 6.38 µM in the assay with SK-MEL-28 melanoma, 3.07 µM with CCRF-CEM leukemia and 10 µM with NCI-H522 lung. Also, the TGI in the assay with SNB-19 CNS worked out at 18.6 µM; in the assay with HCT-116 colon, 14.6 µM; with OVCAR-3 ovarian, 19.9 µM; in the assay on HL-60(TB) leukemia, 33.4 µM; in the assay with T-47D breast it was 25.9 µM; in the assay on HCC-2998 colon it was 6.85 µM. The TGI with SK-MEL-28 melanoma stood at 20.7 µM; with CCRF-CEM leukemia, 18.1 µM; in the assay with NCI-H522 lung it was 24.5 µM.
As for `Cc1ccc(NC(=O)CSc2nnc3n(Cc4ccccc4)c(=O)c4c(C)c(C(N)=O)sc4n23)cc1`, the GI50 is 26 µM in the assay with M14 melanoma; 14.6 µM in the assay on SNB-19 CNS; 3.5 µM in the assay on HCT-116 colon; greater than 100 µM in the assay on OVCAR-3 ovarian; greater than 100 µM in the assay on HL-60(TB) leukemia; 8.12 µM in the assay with T-47D breast. Besides, the GI50 was greater than 100 µM with HCC-2998 colon, 20.1 µM with CCRF-CEM leukemia and 3.85 µM in the assay with NCI-H522 lung. Further, the TGI in the assay on M14 melanoma, with SNB-19 CNS, in the assay with HCT-116 colon, in the assay with OVCAR-3 ovarian, with HL-60(TB) leukemia and with T-47D breast was greater than 100 µM each time. Also, the TGI with HCC-2998 colon was greater than 100 µM; in the assay with CCRF-CEM leukemia, 46.1 µM; in the assay on NCI-H522 lung, greater than 100 µM.
As to `CO/N=C(\COc1ccc2oc(-c3ccccc3)cc(=O)c2c1)c1ccc(OC)cc1`, the GI50 with M14 melanoma is 21.4 µM; in the assay with HCT-116 colon it was 16.9 µM; in the assay on OVCAR-3 ovarian, 22.7 µM; in the assay with HL-60(TB) leukemia it was 6.16 µM; in the assay with T-47D breast it was 22.8 µM; with HCC-2998 colon, 21.4 µM. The GI50 in the assay on SK-MEL-28 melanoma was 30.7 µM; with CCRF-CEM leukemia, 29.7 µM; in the assay on NCI-H522 lung, 17.8 µM. Also, the TGI in the assay with M14 melanoma is 49.2 µM; in the assay on HCT-116 colon, 33.8 µM; in the assay with OVCAR-3 ovarian, 71 µM; with HL-60(TB) leukemia, greater than 100 µM; in the assay with T-47D breast it was 63.8 µM; in the assay with HCC-2998 colon, 48.6 µM. Also, the TGI with SK-MEL-28 melanoma is greater than 100 µM; with CCRF-CEM leukemia it was 74.8 µM; in the assay with NCI-H522 lung, 37.4 µM.
Regarding `Cc1cn2c(/C=N/N=C(N)N)c(-c3ccccn3)nc2s1`, the GI50 with M14 melanoma is 19.6 µM; with SNB-19 CNS, 15.1 µM; in the assay on HCT-116 colon, 6.29 µM; with OVCAR-3 ovarian it was 17.3 µM; in the assay on HL-60(TB) leukemia it was 4.56 µM; in the assay on T-47D breast, 7.59 µM. In addition, the GI50 in the assay on SK-MEL-28 melanoma is 11.6 µM; in the assay on CCRF-CEM leukemia, 12.3 µM; in the assay on NCI-H522 lung, 14.2 µM. Also, the TGI was greater than 52.1 µM with M14 melanoma; 35.8 µM in the assay on SNB-19 CNS; 25.8 µM in the assay on HCT-116 colon; 34.2 µM in the assay with OVCAR-3 ovarian; greater than 100 µM in the assay on HL-60(TB) leukemia; 18.2 µM in the assay on T-47D breast. Besides, the TGI was 36.9 µM in the assay with SK-MEL-28 melanoma, greater than 100 µM with CCRF-CEM leukemia and 53.3 µM in the assay on NCI-H522 lung.
As to `COC(=O)c1cc2c3ccccc3[nH]c2c2sccc12`, the GI50 in the assay with SNB-19 CNS was 23.6 µM; in the assay with HCT-116 colon it was 34.1 µM; with OVCAR-3 ovarian, 24.1 µM; in the assay on HL-60(TB) leukemia, greater than 100 µM; in the assay with T-47D breast it was 6.73 µM; in the assay with HCC-2998 colon, 19.4 µM. The GI50 in the assay on SK-MEL-28 melanoma was 40.4 µM; in the assay on CCRF-CEM leukemia, 46 µM; with NCI-H522 lung, 17.2 µM. Also, the TGI was 79.7 µM in the assay on SNB-19 CNS; greater than 100 µM in the assay on HCT-116 colon; greater than 100 µM with OVCAR-3 ovarian; greater than 100 µM in the assay with HL-60(TB) leukemia; 47.1 µM with T-47D breast; 43.5 µM in the assay with HCC-2998 colon. Besides, the TGI in the assay with SK-MEL-28 melanoma, in the assay on CCRF-CEM leukemia and in the assay on NCI-H522 lung was greater than 100 µM each time.
Take `CCOC(=O)c1cc(-c2ccccc2)[nH]c1N/N=C/c1ccc(Cl)cc1`: the GI50 with SNB-19 CNS is greater than 100 µM; in the assay with HCT-116 colon, 47.6 µM; with OVCAR-3 ovarian it was greater than 100 µM; in the assay with HL-60(TB) leukemia it was 29.5 µM; in the assay on T-47D breast it was 45.5 µM; in the assay with HCC-2998 colon, 54.7 µM. Further, the GI50 in the assay with SK-MEL-28 melanoma is greater than 100 µM; with CCRF-CEM leukemia it was 5.86 µM; with NCI-H522 lung, 89.4 µM. Besides, the TGI is greater than 100 µM with SNB-19 CNS; greater than 100 µM in the assay on HCT-116 colon; greater than 100 µM in the assay on OVCAR-3 ovarian; 63.8 µM in the assay with HL-60(TB) leukemia; greater than 100 µM in the assay on T-47D breast; greater than 100 µM in the assay on HCC-2998 colon. Moreover, the TGI with SK-MEL-28 melanoma, in the assay on CCRF-CEM leukemia and with NCI-H522 lung was greater than 100 µM throughout.
As for `C/C(=N\NC(=S)SCc1ccccc1)c1ccccn1`, the TGI in the assay on M14 melanoma was 6.44 µM; in the assay on SNB-19 CNS, 18.3 µM; in the assay with HCT-116 colon, 5.96 µM; in the assay with HL-60(TB) leukemia it was 1.04 µM; with T-47D breast, greater than 42.6 µM; in the assay with HCC-2998 colon, 23.8 µM. Further, the TGI with CCRF-CEM leukemia is less than 0.01 µM; in the assay with NCI-H522 lung it was 2.79 µM.
